Source: patent US4548820A, “Xanthine compounds” (Adir, priority 1982, dated 1985)

Tests used:
[1] = system: effect produced in the guinea pig by a histamine aerosol; test: Test of A. K. Armitage, histamine aerosol at 4%; assay type: in vivo; conditions: oral administration of 5 mg/kg
Protocol: When submitted to the test of A. K. Armitage, Brit J. Pharmacol. 17, 196, (1961), the compounds according to the invention administered by oral route at doses between 0.5 and 10 mg/kg, depending on the compounds, inhibit by 50% the effect produced in the guinea pig by a histamine aerosol at 4%. For certain of these compounds, the effect is still very strong 48 hours after oral administration.
By way of non-restricting example, the oral administration of 5 mg/kg of the compound of example 1, inhibits for more than 48 hours the broncho-spasm caused be a histamine aerosol at 4%. In addition, a reduction of the anaphylactic cutaneous reaction is observed in the rat after a single administration of 20 mg/kg per os of this compound.

A 1 receptors = biological target: T1, A 1 receptors (Homo sapiens, UniProt P30542); test: Purinergic A 1 receptors; assay type: binding
T1 sequence (P30542 1-326): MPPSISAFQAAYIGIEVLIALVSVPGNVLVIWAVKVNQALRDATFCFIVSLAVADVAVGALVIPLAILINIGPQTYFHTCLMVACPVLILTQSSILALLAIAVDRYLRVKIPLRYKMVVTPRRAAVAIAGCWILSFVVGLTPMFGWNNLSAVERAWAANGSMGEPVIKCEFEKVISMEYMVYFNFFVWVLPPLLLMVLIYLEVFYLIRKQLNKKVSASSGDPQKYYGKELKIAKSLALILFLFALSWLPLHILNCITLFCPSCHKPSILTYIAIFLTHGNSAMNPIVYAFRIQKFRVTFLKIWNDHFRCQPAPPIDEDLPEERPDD

- IC50 (A 1 receptors): > 100 µM
SMILES: CC(C)Cn1c(=O)n(C)c(=O)c2[nH]c(CCN3CCN(C(c4ccccc4)c4ccccc4)CC3)nc21 [Example 1, 1-methyl-3-isobutyl-8-[2-(4-diphenylmethyl-piperazinyl)ethyl]xanthine]
- duration of inhibition of the broncho-spasm caused by a histamine aerosol at 4% [1]: more than 48 hours
